Measured values taken from paper PMC3024946, “Hydroxyproline-containing collagen analogs trigger the release and activation of collagen-sequestered proMMP-2 by competition with prodomain-derived peptide P33-42” (Fibrogenesis & Tissue Repair, 2011).
Entries after “also recorded” stand apart in the source; their conditions may differ.

Target: T1, proMMP-2 / CI (Homo sapiens, UniProt P08253)
T1 construct: prodomain-containing proMMP-2 or proMMP-9; purchased Invitek
T1 sequence (P08253 30-660 limits assumed): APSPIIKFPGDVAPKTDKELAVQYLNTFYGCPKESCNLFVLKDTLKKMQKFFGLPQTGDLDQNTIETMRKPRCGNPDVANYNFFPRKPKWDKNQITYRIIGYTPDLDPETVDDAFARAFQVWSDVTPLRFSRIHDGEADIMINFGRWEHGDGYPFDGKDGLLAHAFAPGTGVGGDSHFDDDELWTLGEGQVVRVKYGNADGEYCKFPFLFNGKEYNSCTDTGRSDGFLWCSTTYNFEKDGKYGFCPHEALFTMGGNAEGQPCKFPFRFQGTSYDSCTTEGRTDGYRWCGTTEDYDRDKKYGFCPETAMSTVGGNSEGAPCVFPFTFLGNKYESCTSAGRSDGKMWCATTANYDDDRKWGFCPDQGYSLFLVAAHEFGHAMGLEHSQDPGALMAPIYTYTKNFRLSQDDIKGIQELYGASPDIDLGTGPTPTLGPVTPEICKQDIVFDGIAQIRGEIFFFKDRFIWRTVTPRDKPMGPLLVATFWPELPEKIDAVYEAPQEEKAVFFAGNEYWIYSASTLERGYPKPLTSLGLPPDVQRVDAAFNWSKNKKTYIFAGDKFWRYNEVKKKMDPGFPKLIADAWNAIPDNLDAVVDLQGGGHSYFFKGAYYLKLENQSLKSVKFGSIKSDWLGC
Assay: SPR, competition of proMMP-2 binding to CI, MMP activity buffer with Ro 28-2653
Conditions: for competition with proMMP-2 binding to CI: SPR, MMP activity buffer with Ro 28-2653; for Kd for binding to CI in the presence of 10-fold molar excess of competitor: proMMP-2 100 nM, MMP activity buffer, 1 μM Ro 28-2653, 25°C, mean ± SD, at least three experiments
Description: Sensor chip preparations and SPR measurements were performed using a BiacoreX device and the Bia-evaluation software (version 3.2; Biacore, Uppsala, Sweden). The pepsin-resistant triple-helical part of human fibrillar CI (100 μg/ml) in 10 mM acetate coupling buffer, pH 4.8, was immobilized to a dextran matrix-sensor chip at a flow rate of 5 μl/min, resulting in 5,500 resonance units from CI covalently linked via its primary amino groups. The control flow cell was prepared using the coupling buffer without CI. Surfaces were activated and blocked as described previously. Immediately after thawing, pro- and actMMP-2 and pro- and actMMP-9 were diluted to 100 to 250 nM in MMP activity buffer or in PBS and 0.05% (vol/vol) Tween 20. For SPR measurements, flow rates were 10 μl/min at 25°C, and equilibrium was typically reached after 30 to 60 s. The effects of (GPO)10, GAP, (POG)5, (GPP)10 and P33-42 on MMP-2 and MMP-9 binding to CI and their enzymatic activity were determined by adding the binding competitors to the (pro- and act)MMP-2 and MMP-9 solution in 10- to 150-fold molar excesses. Effects independent of MMP-2 and MMP-9 activity were monitored in the presence of Ro 28-2653 (1 μM) during SPR analysis. The gelatinase inhibitor Ro 28-2653 was a generous gift from H.-W. Krell (Roche, Grenzach-Wyhlen, Germany). Sensor surfaces were regenerated with 10 mM glycine, pH 2.3, for 1 min between runs, and sensor chips were used up to 25 times. Kinetic parameters were analyzed using the 1:1 binding model with drifting baseline and subtraction of the control flow cell binding from sensorgrams obtained with immobilized CI. Binding constants (Kd) were calculated from the association (ka) and dissociation rates (kd) obtained from individual binding curves at different concentrations. Individual drifts of the resonance signal were fitted locally, and χ^2 values of 0.2% to 1.0% of the maximum resonance value were considered good fits.

## H-Gly-Cys-Pro-(Gly-Pro-Pro)10-Gly-Cys-Pro-Gly-NH2 [(GPP)10, Triple-helical Gly-Pro-Pro (GPP)10, devoid of Hyp]
  competition with proMMP-2 binding to CI: much less efficient in competing with proMMP-2 binding to CI than the nonhelical (POG)5
  Kd for binding to CI in the presence of 10-fold molar excess of competitor: 42.1 ± 39.1 nM
proMMP-2, 10-fold molar excess of competitor
  reduction of affinity / increase in Kd of binding to CI: about a sixfold increase

## H-Gly-Cys-Hyp-(Gly-Pro-Hyp)10-Gly-Cys-Hyp-Gly-NH2 [(GPO)10, triple-helical Hyp-containing collagen analog]
  competition with proMMP-2 binding to CI: comparable to that of (POG)5; also recorded: effectively compete proMMP-2 binding to CI
  Kd for binding to CI in the presence of 10-fold molar excess of competitor: 155.5 ± 50.2 nM
